Experimental data from patent US8198311B2, “Modulators of glucocorticoid receptor, AP-1, and/or NF-κB activity and use thereof” (Bristol-Myers Squibb Company, priority 2006, dated 2012).

Assays:
[1] = target: T1, human glucocorticoid receptor (Homo sapiens, UniProt P04150); assay: Glucocorticoid Receptor Binding Assay (I), fluorescence polarization competitor kit (Fluormone GS Red); conditions: purified human recombinant full-length GR
T1 construct: purified human recombinant full-length glucocorticoid receptor (2 nM); purchased Invitrogen Part # 2893
T1 sequence (P04150 1-777): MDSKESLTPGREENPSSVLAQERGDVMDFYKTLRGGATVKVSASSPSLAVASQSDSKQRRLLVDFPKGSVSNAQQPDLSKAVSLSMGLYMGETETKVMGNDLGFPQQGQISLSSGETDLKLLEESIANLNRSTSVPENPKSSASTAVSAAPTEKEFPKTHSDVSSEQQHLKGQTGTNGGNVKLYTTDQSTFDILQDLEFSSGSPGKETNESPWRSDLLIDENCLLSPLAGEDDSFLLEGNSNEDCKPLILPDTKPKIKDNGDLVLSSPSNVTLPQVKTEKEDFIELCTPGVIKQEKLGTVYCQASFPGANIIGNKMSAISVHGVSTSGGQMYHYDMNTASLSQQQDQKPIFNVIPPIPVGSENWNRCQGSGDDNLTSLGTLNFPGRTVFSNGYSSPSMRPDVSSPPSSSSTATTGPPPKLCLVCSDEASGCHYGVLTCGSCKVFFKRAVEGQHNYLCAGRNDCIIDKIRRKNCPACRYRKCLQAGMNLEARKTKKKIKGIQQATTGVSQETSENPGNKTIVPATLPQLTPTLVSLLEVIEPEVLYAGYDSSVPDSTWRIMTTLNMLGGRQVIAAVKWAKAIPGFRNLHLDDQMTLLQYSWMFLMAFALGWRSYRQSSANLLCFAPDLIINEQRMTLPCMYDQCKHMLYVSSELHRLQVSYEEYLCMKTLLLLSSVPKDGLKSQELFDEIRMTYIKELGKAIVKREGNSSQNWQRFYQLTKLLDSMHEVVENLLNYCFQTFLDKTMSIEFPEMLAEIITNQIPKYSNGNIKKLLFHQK
Method: In order to assess the affinity of test compounds for the human glucocorticoid receptor, a commercially available kit was used (Glucocorticoid Receptor Competitor Assay Kit, Invitrogen Part # 2893). Briefly, purified human recombinant full-length glucocorticoid receptor (2 nM) was mixed with fluorescently labeled glucocorticoid (1 nM Fluormone GS Red) in the presence or absence of test compound. After two hour incubation at room temperature in the dark, the fluorescence polarization (FP) of the samples was measured. […] Test compounds were analyzed in the concentration range from 8.5E-05 μM to 5 μM.

[2] = test system: AP-1 induced transcriptional activity; assay: Cellular Transrepressional Assay (AP-1 luciferase reporter in A549 cells, PMA-activated); type: cell-based; conditions: Homo sapiens, A549, 7 h, pAP-1-Luc, 10 ng/ml PMA, read-out: AP-1 (EC50, nM) (Cellular Transrepression Assay)
Method: To measure the ability of test molecules to inhibit AP-1 induced transcriptional activity an A549 cell was utilized which was stably transfected with a plasmid containing 7×AP-1 DNA binding sites (pAP-1-Luc plasmid, Stratagene Co. La Jolla, Calif.) followed by the gene for luciferase. Cells were activated with 10 ng/ml of phorbol myristic acid (PMA) plus or minus test molecules for 7 hours. After 7 hours a luciferase reagent was added to measure luciferase enzymatic activity in the cell. After a 10 minute incubation of luciferase reagent with cells, luminescence was measured in a TopCount luminescence counter. Repression of AP-1 activity was calculated as the percentage decrease in the signal induced by PMA alone. Test molecules were analyzed in the concentration range from 0.1 nM to 40 μM. EC50s were determined by using standard curve fitting methods such as Excel fit (Microsoft Co.).

| Structure (SMILES) | Ki [1] [nM] | EC50 [2] [nM] |
| --- | --- | --- |
| CC(C)CC(c1ccc2c(cnn2-c2ccc(F)cc2)c1)C(C)(C)CNC(=O)N[C@H](C)CO (stereo partly drawn) [Example 45, 1-(3-(1-(4-fluorophenyl)-1H-indazol-5-yl)-2,2,5-trimethylhexyl)-3-((R)-1-hydroxypropan-2-yl)urea] | 2.1 | 1540 |
| CC(C)CC(c1ccc2c(cnn2-c2ccc(F)cc2)c1)C(C)(C)CNC(=O)NC(CO)CO (stereo not shown) [Example 46, 1-(1,3-dihydroxypropan-2-yl)-3-(3-(1-(4-fluorophenyl)-1H-indazol-5-yl)-2,2,5-trimethylhexyl)urea] | 1.5 | 6050 |
| CC(C)CC(c1ccc2c(cnn2-c2ccc(F)cc2)c1)C(C)(C)CNC(=O)N[C@@H](C)CO (stereo partly drawn) [Example 47, 1-(3-(1-(4-fluorophenyl)-1H-indazol-5-yl)-2,2,5-trimethylhexyl)-3-((S)-1-hydroxypropan-2-yl)urea] | 1.3 | 204 |
| CC(C)CC(c1ccc2c(cnn2-c2ccc(F)cc2)c1)C(C)(C)CNC(=O)NC(C)(C)c1ccccc1 (stereo not shown) [Example 48, 1-(3-(1-(4-fluorophenyl)-1H-indazol-5-yl)-2,2,5-trimethylhexyl)-3-(2-phenylpropan-2-yl)urea] | 3.1 | 42 |
| CC(C)CC(c1ccc2c(cnn2-c2ccc(F)cc2)c1)C(C)(C)CNC(=O)Nc1ccccc1 (stereo not shown) [Example 50, 1-(3-(1-(4-fluorophenyl)-1H-indazol-5-yl)-2,2,5-trimethylhexyl)-3-phenylurea] | 7.5 | 223 |
| CC(C)CC(c1ccc2c(cnn2-c2ccc(F)cc2)c1)C(C)(C)CNC(=O)NC(C)(C)CC(=O)O (stereo not shown) [Example 51, 3-(3-(3-(1-(4-fluorophenyl)-1H-indazol-5-yl)-2,2,5-trimethylhexyl)ureido)-3-methylbutanoic acid] | 3 | 624 |
| Cc1ccc(C(C)(C)NC(=O)NCC(C)(C)C(CC(C)C)c2ccc3c(cnn3-c3ccc(F)cc3)c2)c(C)n1 (stereo not shown) [Example 52, 1-(2-(2,6-dimethylpyridin-3-yl)propan-2-yl)-3-(3-(1-(4-fluorophenyl)-1H-indazol-5-yl)-2,2,5-trimethylhexyl)urea] | 2.3 | 772 |
| Cc1cc(C(C)(C)NC(=O)NCC(C)(C)C(CC(C)C)c2ccc3c(cnn3-c3ccc(F)cc3)c2)ccn1 (stereo not shown) [Example 53, 1-(3-(1-(4-fluorophenyl)-1H-indazol-5-yl)-2,2,5-trimethylhexyl)-3-(2-(2-methylpyridin-4-yl)propan-2-yl)urea] | 1.8 | 306 |
| CC(C)CC(c1ccc2c(cnn2-c2ccc(F)cc2)c1)C(C)(C)CNC(=O)NC(C)(C)Cc1ccc(F)cc1 (stereo not shown) [Example 54, 1-(3-(1-(4-fluorophenyl)-1H-indazol-5-yl)-2,2,5-trimethylhexyl)-3-(1-(4-fluorophenyl)-2-methylpropan-2-yl)urea] | 22 | 285 |
| CC(C)CC(c1ccc2c(cnn2-c2ccc(F)cc2)c1)C(C)(C)CNC(=O)N(C)C (stereo not shown) [Example 55, 3-(3-(1-(4-fluorophenyl)-1H-indazol-5-yl)-2,2,5-trimethylhexyl)-1,1-dimethylurea] | 1.4 | 698 |
| CC(C)CC(c1ccc2c(cnn2-c2ccc(F)cc2)c1)C(C)(C)CNC(=O)NC(C)(C)C(=O)Nc1ccccc1 (stereo not shown) [Example 56, 2-(3-(3-(1-(4-fluorophenyl)-1H-indazol-5-yl)-2,2,5-trimethylhexyl)ureido)-2-methyl-N-phenylpropanamide] | 6.1 | 80 |
| CC(C)CC(c1ccc2c(cnn2-c2ccc(F)cc2)c1)C(C)(C)CNC(=O)OCC(C)(C)C (stereo not shown) [Example 62, neopentyl 3-(1-(4-fluorophenyl)-1H-indazol-5-yl)-2,2,5-trimethylhexylcarbamate] | 11 | > 10000 |
| CC(C)CC(c1ccc2c(cnn2-c2ccc(F)cc2)c1)C(C)(C)CNS(=O)(=O)NC(C)(C)C (stereo not shown) [Example 63] | 4.3 | > 10000 |
| CC(C)CC(c1ccc2c(cnn2-c2ccc(F)cc2)c1)C(C)(C)CNC(=O)NC(C)(C)c1ccnc(C(C)(C)C)c1 (stereo not shown) [Example 64, 1-(2-(2-tert-butylpyridin-4-yl)propan-2-yl)-3-(3-(1-(4-fluorophenyl)-1H-indazol-5-yl)-2,2,5-trimethylhexyl)urea] | 17 | > 10000 |
| CC(C)CC(c1ccc2c(cnn2-c2ccc(F)cc2)c1)C(C)(C)CNC(=O)CC(C)(C)C (stereo not shown) [Example 66, N-(3-(1-(4-fluorophenyl)-1H-indazol-5-yl)-2,2,5-trimethylhexyl)-3,3-dimethylbutanamide] | 3 | 177 |
| CC(C)CC(c1ccc2c(cnn2-c2ccc(F)cc2)c1)C(C)(C)CNC(=O)C(=O)C(C)(C)C (stereo not shown) [Example 67, N-(3-(1-(4-fluorophenyl)-1H-indazol-5-yl)-2,2,5-trimethylhexyl)-3,3-dimethyl-2-oxobutanamide] | 5.6 | 164 |
| CC(C)CC(c1ccc2c(cnn2-c2ccc(F)cc2)c1)C(C)(C)CNC(=O)CC(C)(C)c1ccc(Cl)cc1 (stereo not shown) [Example 68, 3-(4-chlorophenyl)-N-(3-(1-(4-fluorophenyl)-1H-indazol-5-yl)-2,2,5-trimethylhexyl)-3-methylbutanamide] | 8.1 | 271 |
| CC(C)CC(c1ccc2[nH]ncc2c1)C(C)(C)CNC(=O)NC(C)(C)C (stereo not shown) [Example 70, 1-(3-(1H-indazol-5-yl)-2,2,5-trimethylhexyl)-3-tert-butylurea] | 44 | > 10000 |
| CC(C)CC(c1ccc2c(cnn2-c2ccc(F)cc2)c1)C(C)(C)CNC(=O)N[C@H]1CCc2ccccc21 (stereo partly drawn) [Example 71A, 1-((S)-2,3-dihydro-1H-inden-1-yl)-3-(3-(1-(4-fluorophenyl)-1H-indazol-5-yl)-2,2,5-trimethylhexyl)urea] | 5.8 | 194 |
| CC(C)CC(c1ccc2c(cnn2-c2ccc(F)cc2)c1)C(C)(C)CNC(=O)N[C@@H]1CCc2ccccc21 (stereo partly drawn) [Example 71B, 1-((R)-2,3-dihydro-1H-inden-1-yl)-3-(3-(1-(4-fluorophenyl)-1H-indazol-5-yl)-2,2,5-trimethylhexyl)urea] | 6.5 | 511 |
| CC(C)CC(c1ccc2c(cnn2-c2ccc(F)cc2)c1)C(C)(C)CNC(=O)NC(c1ccccc1)c1ccccc1 (stereo not shown) [Example 73, 1-benzhydryl-3-(3-(1-(4-fluorophenyl)-1H-indazol-5-yl)-2,2,5-trimethylhexyl)urea] | 13 | 107 |
| CC(C)CC(c1ccc2c(cnn2-c2ccc(F)cc2)c1)C(C)(C)CNC(=O)NC1CCC(C(C)(C)C)CC1 (stereo not shown) [Example 74, 1-(4-tert-butylcyclohexyl)-3-(3-(1-(4-fluorophenyl)-1H-indazol-5-yl)-2,2,5-trimethylhexyl)urea] | 26 | > 10000 |
| CC(C)CC(c1ccc2c(cnn2-c2ccc(F)cc2)c1)C(C)(C)CNC(=O)N[C@H](C)c1cccc2ccccc12 (stereo partly drawn) [Example 75, 1-(3-(1-(4-fluorophenyl)-1H-indazol-5-yl)-2,2,5-trimethylhexyl)-3-((R)-1-(naphthalene-1-yl)ethyl)urea] | 8.9 | 628 |
| CC(C)CC(c1ccc2c(cnn2-c2ccc(F)cc2)c1)C(C)(C)CNC(=O)N[C@@H](C)c1cccc2ccccc12 (stereo partly drawn) [Example 76, 1-(3-(1-(4-fluorophenyl)-1H-indazol-5-yl)-2,2,5-trimethylhexyl)-3-((S)-1-(naphthalene-1-yl)ethyl)urea] | 8.7 | > 10000 |
| CC(C)CC(c1ccc2c(cnn2-c2ccc(F)cc2)c1)C(C)(C)CNC(=O)N[C@@H](C)C(C)(C)C (stereo partly drawn) [Example 77, 1-((S)-3,3-dimethylbutan-2-yl)-3-(3-(1-(4-fluorophenyl)-1H-indazol-5-yl)-2,2,5-trimethylhexyl)urea] | 7.4 | 143 |
| CC(C)CC(c1ccc2c(cnn2-c2ccc(F)cc2)c1)C(C)(C)CNC(=O)N[C@@H]1c2ccccc2C[C@@H]1O (stereo partly drawn) [Example 78, 1-(3-(1-(4-fluorophenyl)-1H-indazol-5-yl)-2,2,5-trimethylhexyl)-3-((1R,2S)-2-hydroxy-2,3-dihydro-1H-inden-1-yl)urea] | 2.2 | 813 |
